{"source": "patent US20180214395A1", "about": "(priority 2017, published 2018)", "key": {"[1]": {"biological_target": "T1, norepinephrine transporter (NET) (Rattus norvegicus, UniProt Q63380)", "T1 construct": "tissue Eurofins Cerep; host or cells: rat hypothalamus synaptosomes (own knowledge of the vendor's assay)", "T1 sequence (Q63380 1-617)": "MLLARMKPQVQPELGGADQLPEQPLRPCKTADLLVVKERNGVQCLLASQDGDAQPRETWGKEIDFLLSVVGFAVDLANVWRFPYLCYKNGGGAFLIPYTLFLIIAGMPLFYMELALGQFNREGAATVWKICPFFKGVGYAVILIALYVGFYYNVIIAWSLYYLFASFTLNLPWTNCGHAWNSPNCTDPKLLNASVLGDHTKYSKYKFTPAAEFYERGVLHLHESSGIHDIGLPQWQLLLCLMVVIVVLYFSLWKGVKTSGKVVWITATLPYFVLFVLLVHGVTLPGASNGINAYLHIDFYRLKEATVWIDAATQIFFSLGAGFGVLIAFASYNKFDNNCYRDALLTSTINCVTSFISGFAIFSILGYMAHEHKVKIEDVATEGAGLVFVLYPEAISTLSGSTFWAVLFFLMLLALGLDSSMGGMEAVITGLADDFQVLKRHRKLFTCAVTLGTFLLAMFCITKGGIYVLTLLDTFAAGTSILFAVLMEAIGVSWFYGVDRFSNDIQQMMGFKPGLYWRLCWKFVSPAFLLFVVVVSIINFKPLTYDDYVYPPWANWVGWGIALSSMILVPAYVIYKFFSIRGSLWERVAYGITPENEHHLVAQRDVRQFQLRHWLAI", "experiment": "Norepinephrine uptake assay", "assay_type": "biochemical"}, "[2]": {"experiment": "Clinical Opiate Withdrawal Scale (COWS) after abrupt discontinuation, MAD study", "conditions": "abrupt discontinuation after 10 consecutive days"}}, "data": [{"smiles": "CCC(=O)C(C[C@H](C)N(C)C)(c1ccccc1)c1ccccc1", "note": "[d-methadone]", "values": [{"measurement": "IC50", "setting": "[1]", "value": 8.2, "unit": "µM"}, {"measurement": "norepinephrine uptake, % inhibition", "setting": "[1]; 1.0E−05 M", "value": 61.6, "unit": "%"}, {"measurement": "Inhibition of norepinephrine uptake by NET", "setting": "[1]; […]", "value": "significant inhibition"}, {"measurement": "Withdrawal symptoms (COWS)", "setting": "[2]", "value": "did not cause symptoms of withdrawal"}]}]}
